Measured values: patent US20250228899A1, “GENERATING AND UTILIZING ADULT HEPATOCYTE ORGANOIDS” (University of Washington, priority 2021, published 2025)

System: adult human hepatocytes
Experiment: Adult human hepatocyte organoids grown in different concentrations of A83-01
Type: cell-based
Details: albumin secretion and organoid cross-sectional area readouts
Method: In this Example, adult human hepatocytes were grown in different concentrations of A83-01, ranging from 0 nM to 40 nM. FIG. 16 illustrates albumin secretion of hepatocytes grown with 6 different concentrations of A83-01 measured by human albumin ELISA. FIG. 17 illustrates average cross-sectional area of organoids in individual wells grown in 4 different concentrations of A83-01 ranging from 0 to 100 nM. Data is represented as the mean, plus or minus standard deviation of more than 20 wells. FIG. 18 illustrates albumin secretion measured by human Albumin ELISA, comparing adult human hepatocyte organoids grown in 5 different concentrations of A83-01 ranging from 0 nM to 40 nM. The results of these studies illustrate that medium containing less than 50 nM of A83-01 is effective for adult hepatocyte growth.

`Cc1cccc(-c2nn(C(=S)Nc3ccccc3)cc2-c2ccnc3ccccc23)n1` [A83-01] was tested, and the “A83-01 concentration in medium effective for adult hepatocyte growth” value was “less than 50 nM”.
